Data from patent publication US20230248788A1, “COMPOSITIONS AND RELATED METHODS FOR SUPPORTING COMPANION ANIMALS WITH GASTROINTESTINAL DISORDERS” (priority 2020, published 2023).
Values after ≈ are worked out from the molar mass of the structure shown. Read-outs that look alike come from different tables or passages of the source.

Assays:
L. brevis WF-1B [1] = assay: Antibiotic susceptibility assay, broth microdilution; format: cell-based, Levilactobacillus brevis; settings: for MIC: antibiotic against L. brevis WF-1B; for susceptibility of L. brevis WF-1B to the antibiotic: MIC compared with EFSA cut-off value
Protocol: Broth microdilution was used to determine the susceptibility of the L. brevis WF-1B isolate against eight commonly used clinical antibiotics. Broth micro-dilution was performed following the methods according to: International Organization for Standardization, Milk and milk products—Determination of the minimal inhibitory concentration (MIC) of antibiotics applicable to bifidobacteria and non-enterrococcal lactic acid bacteria (LAB) (ISO 10932:2012). Antibiotic stock solutions were prepared following the methods according to: CLSI, Performance Standards for Antimicrobial Susceptibility Testing, 23rd edition, CLSI Standard M100, Wayne, Pa.: Clinical and Laboratory Standards Institute; 2013. The measured minimum inhibitory concentrations (MICs) and microbiological cut-off values from the antibiotic susceptibility assays for L. brevis WF-1B are shown below in Table 5.

L. brevis WF-1B [2] = settings: EFSA microbiological cut-off value; cited from earlier work
[3] = Levilactobacillus brevis, WF1B, read-out: MIC

Row | Compound | MIC (L. brevis WF-1B [1]; [3]) [µg/mL] | susceptibility of L. brevis WF-1B to the antibiotic (L. brevis WF-1B [1]) | Cut-off value (L. brevis WF-1B [2]) [µg/mL] | MIC (L. brevis WF-1B [1]) [µg/mL]
1 | CC1(C)S[C@@H]2[C@H](NC(=O)[C@H](N)c3ccccc3)C(=O)N2[C@H]1C(=O)O [Ampicillin] | 8 (≈ 22.9 µM) | resistant | 2 | –
2 | O=C(N[C@H](CO)[C@H](O)c1ccc([N+](=O)[O-])cc1)C(Cl)Cl [Chloramphenicol] | 16 (≈ 49.5 µM) | resistant | 4 | –
3 | CCC[C@@H]1C[C@@H](C(=O)N[C@@H]([C@H]2O[C@H](SC)[C@H](O)[C@@H](O)[C@H]2O)[C@H](C)Cl)N(C)C1 [Clindamycin] | 8 (≈ 18.8 µM) | – | – | –
4 | CC[C@H]1OC(=O)[C@H](C)[C@@H](O[C@H]2C[C@@](C)(OC)[C@@H](O)[C@H](C)O2)[C@H](C)[C@@H](O[C@@H]2O[C@H](C)C[C@H](N(C)C)[C@H]2O)[C@](C)(O)C[C@@H](C)C(=O)[C@H](C)[C@@H](O)[C@]1(C)O [Erythromycin] | 0.83 (≈ 1.13 µM) | sensitive | 1 | –
5 | NC[C@H]1O[C@H](O[C@H]2[C@H](O)[C@@H](O[C@H]3O[C@H](CO)[C@@H](O)[C@H](N)[C@H]3O)[C@H](N)C[C@@H]2N)[C@H](O)[C@@H](O)[C@@H]1O [Kanamycin] | 85 (≈ 175 µM) | – | – | –
6 | [H]/N=C(/N)N[C@H]1[C@H](O)[C@@H](O)[C@H](O[C@@H]2O[C@@H](C)[C@](O)(C=O)[C@H]2O[C@@H]2O[C@@H](CO)[C@H](O)[C@@H](O)[C@@H]2NC)[C@@H](N/C(N)=N\[H])[C@@H]1O [Streptomycin] | 8 (≈ 13.8 µM) | sensitive | 64 | –
7 | CN(C)[C@@H]1C(O)=C(C(N)=O)C(=O)[C@@]2(O)C(O)=C3C(=O)c4c(O)cccc4[C@@](C)(O)[C@H]3C[C@@H]12 [Tetracycline] | 64 (≈ 144 µM) | – | – | –
8 | Gentamicin | – | sensitive | 16 | 3
